Experimental data published in ChEMBL document CHEMBL5236644, “Multitargeting approaches to cognitive impairment: Synthesis of aryl-alkylpiperazines and assessment at cholinesterases, histamine H3 and dopamine D3 receptors” (Bioorg Med Chem, 2023).
pIC50, pKi: −log10 of the molar value.

How the values were obtained:
Histamine H3 receptor [1] = target: T1, Histamine H3 receptor (Homo sapiens, UniProt Q9Y5N1); assay: Inhibition of human H3 receptor at 10 uM incubated for 90 mins by scintillation counting method relative to control
[2] = target: Cholinesterase (Equus caballus) (UniProt P81908); assay: Inhibition of equine BChE at 100 uM using acetylthiocholine chloride as substrate preincubated for 15 mins followed by substrate addition and measured after 30 mins by DTNB reagent based Ellman's method relative to control; details: time 45.0 min
D(3) dopamine receptor [3] = target: T2, D(3) dopamine receptor (Homo sapiens, UniProt P35462); assay: Inhibition of human D3 receptor expressed in CHO cells at 10 uM by scintillation counting method relative to control; format: cell-based
Histamine H3 receptor [4] = target: T1, Histamine H3 receptor; assay: Binding affinity to human H3 receptor assessed as inhibition constant incubated for 90 mins by scintillation counting method
D(3) dopamine receptor [5] = target: T2, D(3) dopamine receptor; assay: Binding affinity to human D3 receptor expressed in CHO cells assessed as inhibition constant by scintillation counting method; format: cell-based
Cholinesterase = Cholinesterase (Equus caballus, UniProt P81908); assay: Inhibition of equine BChE using acetylthiocholine chloride as substrate preincubated for 15 mins followed by substrate addition and measured after 30 mins by DTNB reagent based Ellman's method
Histamine H3 receptor [6] = target: T1, Histamine H3 receptor; assay: Inhibition of human H3 receptor at 1 uM incubated for 90 mins by scintillation counting method relative to control
D(3) dopamine receptor [7] = target: T2, D(3) dopamine receptor; assay: Inhibition of human D3 receptor expressed in CHO cells at 1 uM by scintillation counting method relative to control; format: cell-based
Acetylcholinesterase = Acetylcholinesterase (Electrophorus electricus, UniProt O42275); assay: Inhibition of electrical eel AChE using acetylthiocholine chloride as substrate preincubated for 15 mins followed by substrate addition and measured after 30 mins by DTNB reagent based Ellman's method
D(3) dopamine receptor [8] = target: T2, D(3) dopamine receptor; assay: Inhibition of human D3 receptor expressed in CHO cells assessed as inhibition constant by scintillation counting method; format: cell-based
Histamine H3 receptor [9] = target: T1, Histamine H3 receptor; assay: Inhibition of human H3 receptor incubated for 90 mins by scintillation counting method relative to control

Chain of Cholinesterase (Equus caballus) (P81908 whole entry): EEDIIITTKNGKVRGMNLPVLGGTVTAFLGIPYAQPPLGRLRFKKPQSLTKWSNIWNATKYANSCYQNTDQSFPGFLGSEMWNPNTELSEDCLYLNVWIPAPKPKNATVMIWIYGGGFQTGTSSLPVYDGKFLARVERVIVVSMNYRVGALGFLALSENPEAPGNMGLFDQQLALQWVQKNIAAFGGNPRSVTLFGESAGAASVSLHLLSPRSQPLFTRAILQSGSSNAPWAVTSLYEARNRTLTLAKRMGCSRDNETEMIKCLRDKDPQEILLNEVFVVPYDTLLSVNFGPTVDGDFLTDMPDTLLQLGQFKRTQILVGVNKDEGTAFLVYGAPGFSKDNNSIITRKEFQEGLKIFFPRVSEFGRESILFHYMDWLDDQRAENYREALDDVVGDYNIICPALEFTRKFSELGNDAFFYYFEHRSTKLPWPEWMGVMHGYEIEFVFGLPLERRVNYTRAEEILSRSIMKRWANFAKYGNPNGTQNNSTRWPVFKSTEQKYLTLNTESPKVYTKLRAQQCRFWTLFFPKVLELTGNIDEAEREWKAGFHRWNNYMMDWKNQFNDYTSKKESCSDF
Chain of Cholinesterase (P81908 whole entry): as above
T1 sequence (Q9Y5N1 whole entry): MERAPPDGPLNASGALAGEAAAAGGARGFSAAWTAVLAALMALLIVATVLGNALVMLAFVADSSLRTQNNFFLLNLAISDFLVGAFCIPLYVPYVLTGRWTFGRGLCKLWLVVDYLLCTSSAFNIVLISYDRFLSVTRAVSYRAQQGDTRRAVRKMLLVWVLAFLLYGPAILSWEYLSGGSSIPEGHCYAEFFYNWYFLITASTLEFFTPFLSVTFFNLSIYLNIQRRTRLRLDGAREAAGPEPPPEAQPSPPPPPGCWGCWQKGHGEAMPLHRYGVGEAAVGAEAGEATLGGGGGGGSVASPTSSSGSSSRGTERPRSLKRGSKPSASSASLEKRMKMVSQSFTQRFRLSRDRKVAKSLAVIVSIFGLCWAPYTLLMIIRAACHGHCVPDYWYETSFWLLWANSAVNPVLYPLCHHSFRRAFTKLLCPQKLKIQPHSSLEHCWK
T2 sequence (P35462 whole entry): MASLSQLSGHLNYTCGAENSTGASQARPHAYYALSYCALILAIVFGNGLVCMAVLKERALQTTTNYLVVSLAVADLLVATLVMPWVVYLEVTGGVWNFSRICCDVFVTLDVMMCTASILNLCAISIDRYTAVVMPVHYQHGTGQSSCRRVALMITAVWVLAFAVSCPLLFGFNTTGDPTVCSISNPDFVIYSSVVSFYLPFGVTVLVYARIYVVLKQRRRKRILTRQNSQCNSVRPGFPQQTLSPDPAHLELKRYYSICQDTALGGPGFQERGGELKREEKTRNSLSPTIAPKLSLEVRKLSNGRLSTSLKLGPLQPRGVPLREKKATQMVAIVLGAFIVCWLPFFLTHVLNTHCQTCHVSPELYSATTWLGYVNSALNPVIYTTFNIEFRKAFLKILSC
Chain of Acetylcholinesterase (O42275 whole entry): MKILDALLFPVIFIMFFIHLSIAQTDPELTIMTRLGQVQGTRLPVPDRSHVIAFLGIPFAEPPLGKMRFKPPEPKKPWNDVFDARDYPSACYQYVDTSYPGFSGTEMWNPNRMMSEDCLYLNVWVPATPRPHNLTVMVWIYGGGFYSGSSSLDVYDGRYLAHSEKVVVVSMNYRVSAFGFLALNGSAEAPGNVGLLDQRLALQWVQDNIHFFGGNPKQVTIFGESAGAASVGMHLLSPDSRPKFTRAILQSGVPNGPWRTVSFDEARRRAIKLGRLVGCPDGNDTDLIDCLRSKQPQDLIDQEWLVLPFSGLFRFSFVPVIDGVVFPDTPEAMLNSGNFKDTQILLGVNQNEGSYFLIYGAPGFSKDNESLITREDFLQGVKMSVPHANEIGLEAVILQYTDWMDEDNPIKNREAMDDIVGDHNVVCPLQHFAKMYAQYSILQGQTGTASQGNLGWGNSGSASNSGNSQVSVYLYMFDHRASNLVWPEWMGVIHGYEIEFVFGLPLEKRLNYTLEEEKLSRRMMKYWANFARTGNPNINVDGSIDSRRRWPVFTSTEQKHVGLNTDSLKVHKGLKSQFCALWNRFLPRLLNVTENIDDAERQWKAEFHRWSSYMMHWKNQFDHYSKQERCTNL

Q: Which inhibition (Histamine H3 receptor [1]) does the source give for `CN1CCN(CCOC(=O)c2cccc3ccccc23)CC1` here?
A: 69%

Q: And the inhibition [2]?
A: 38.3%

Q: What about the inhibition (D(3) dopamine receptor [3]) of the same compound?
A: 49.7%

Q: How did the inhibition (Histamine H3 receptor [1]) turn out when `O=C(OCCN1CCN(c2ccccc2)CC1)c1ccc2ccccc2c1` was run?
A: 61.5%

Q: And the inhibition [2]?
A: 36.5%

Q: And the inhibition (D(3) dopamine receptor [3])?
A: 32.8%

Q: With `CN1CCN(CCOc2ccc3ccccc3c2)CC1` as the compound, how does the inhibition (Histamine H3 receptor [1]) read?
A: 39.3%

Q: What about the inhibition [2] of the same compound?
A: 48.4%

Q: What about the inhibition (D(3) dopamine receptor [3]) of the same compound?
A: 15.2%

Q: Which inhibition (Histamine H3 receptor [1]) does the source give for `CN1CCN(CCCOC(=O)c2cc3ccccc3o2)CC1` here?
A: 82.3%

Q: What about the pKi (Histamine H3 receptor [4]) of the same compound?
A: 5.48

Q: And the pKi (D(3) dopamine receptor [5])?
A: < 8.00

Q: What about the inhibition [2] of the same compound?
A: 31.7%

Q: And the inhibition (D(3) dopamine receptor [3])?
A: 9%

Q: Which results are given for `c1ccc(N2CCN(CCCOc3ccc4ccccc4c3)CC2)cc1`?
A: pIC50 (Cholinesterase): 4.27; inhibition (Histamine H3 receptor [6]): 36.8%; pKi (Histamine H3 receptor [4]): < 5.00; pKi (D(3) dopamine receptor [5]): 9.47; inhibition [2]: 65.7%; inhibition (D(3) dopamine receptor [7]): 80.5%

Q: How did the inhibition (Histamine H3 receptor [1]) turn out when `CN1CCN(CCCOC(=O)c2cccc3ccccc23)CC1` was run?
A: 83.8%

Q: What about the pKi (Histamine H3 receptor [4]) of the same compound?
A: 5.43

Q: And the pKi (D(3) dopamine receptor [5])?
A: < 8.00

Q: And the inhibition [2]?
A: 50.6%

Q: And the inhibition (D(3) dopamine receptor [3])?
A: 71.5%

Q: What does the source list for `CC(C)N1CCN(CCCCOc2ccc3c(c2)NC(=O)CC3)CC1`?
A: pIC50 (Cholinesterase): 4.78; pIC50 (Acetylcholinesterase): 5.80

Q: `CN1CCN(CCCOc2cccc3ccccc23)CC1` was tested. Which pIC50 (Cholinesterase) did it give?
A: 4.11

Q: And the inhibition (Histamine H3 receptor [1])?
A: 70%

Q: What about the inhibition [2] of the same compound?
A: 60.2%

Q: And the inhibition (D(3) dopamine receptor [3])?
A: 47.8%

Q: How did the pKi (D(3) dopamine receptor [8]) turn out when `O=C(NCCCCN1CCN(c2ccccc2)CC1)c1ccc2ccccc2c1` was run?
A: 9.04

Q: With `c1ccc(N2CCN(CCCOc3cccc4ccccc34)CC2)cc1` as the compound, how does the inhibition [2] read?
A: 22.7%

Q: How did the pIC50 (Cholinesterase) turn out when `c1ccc2c(OCCN3CCN(c4ccncc4)CC3)cccc2c1` was run?
A: 4.39

Q: What about the inhibition (Histamine H3 receptor [6]) of the same compound?
A: 54%

Q: And the pIC50 (Acetylcholinesterase)?
A: 4.27

Q: What about the inhibition [2] of the same compound?
A: 65.4%

Q: What about the inhibition (D(3) dopamine receptor [7]) of the same compound?
A: 37.7%

Q: Which results are given for `c1ccc(N2CCN(CCOc3ccc4ccccc4c3)CC2)cc1`?
A: inhibition (Histamine H3 receptor [6]): 23.3%; inhibition [2]: 17.5%; inhibition (D(3) dopamine receptor [7]): 45%

Q: With `Clc1ccc(CCCOCCCN2CCCCC2)cc1` as the compound, how does the inhibition (Histamine H3 receptor [9]) read?
A: 99.8%

Q: How did the pIC50 (Cholinesterase) turn out when `O=C(NCCCN1CCN(c2ccncc2)CC1)c1cc2ccccc2o1` was run?
A: 4.07

Q: And the inhibition (Histamine H3 receptor [6])?
A: 80.5%

Q: And the pKi (Histamine H3 receptor [4])?
A: 6.04

Q: What about the pKi (D(3) dopamine receptor [5]) of the same compound?
A: < 8.00

Q: And the inhibition [2]?
A: 54.5%

Q: What about the inhibition (D(3) dopamine receptor [7]) of the same compound?
A: 23.5%

Q: How did the pIC50 (Cholinesterase) turn out when `O=C(OCCCN1CCN(c2ccncc2)CC1)c1cc2ccccc2o1` was run?
A: 4.01

Q: What about the inhibition (Histamine H3 receptor [6]) of the same compound?
A: 88.8%

Q: What about the pIC50 (Acetylcholinesterase) of the same compound?
A: 4.24

Q: And the pKi (Histamine H3 receptor [4])?
A: 6.57

Q: And the pKi (D(3) dopamine receptor [5])?
A: < 8.00

Q: What about the inhibition [2] of the same compound?
A: 49.9%

Q: And the inhibition (D(3) dopamine receptor [7])?
A: 18%

Q: Which results are given for `CN1CCN(CCCOC(=O)c2ccc3ccccc3c2)CC1`?
A: pIC50 (Cholinesterase): 4.36; pIC50 (Acetylcholinesterase): 4.01; inhibition (Histamine H3 receptor [1]): 96.3%; pKi (Histamine H3 receptor [4]): 5.96; pKi (D(3) dopamine receptor [5]): 8.51; inhibition [2]: 85.1%; inhibition (D(3) dopamine receptor [3]): 77.7%

Q: `O=C(OCCN1CCN(c2ccccc2)CC1)c1cccc2ccccc12` was tested. Which inhibition (Histamine H3 receptor [1]) did it give?
A: 71.3%

Q: And the inhibition [2]?
A: 24.1%

Q: What about the inhibition (D(3) dopamine receptor [3]) of the same compound?
A: 52.8%

Q: With `CN1CCN(CCOc2cccc3ccccc23)CC1` as the compound, how does the pIC50 (Cholinesterase) read?
A: 4.23

Q: And the inhibition (Histamine H3 receptor [1])?
A: 21.3%

Q: What about the inhibition [2] of the same compound?
A: 64.9%

Q: And the inhibition (D(3) dopamine receptor [3])?
A: 33.5%

Q: With `O=C(OCCCN1CCN(c2ccccc2)CC1)c1cc2ccccc2o1` as the compound, how does the inhibition [2] read?
A: 46.8%

Q: `CN1CCN(CCOC(=O)c2ccc3ccccc3c2)CC1` was tested. Which pIC50 (Cholinesterase) did it give?
A: 4.24

Q: What about the inhibition (Histamine H3 receptor [1]) of the same compound?
A: 78.2%

Q: And the pKi (Histamine H3 receptor [4])?
A: 5.66

Q: What about the pKi (D(3) dopamine receptor [5]) of the same compound?
A: < 8.00

Q: And the inhibition [2]?
A: 74.8%

Q: And the inhibition (D(3) dopamine receptor [3])?
A: 53.7%

Q: `O=C(OCCCN1CCN(c2ccccc2)CC1)c1cccc2ccccc12` was tested. Which inhibition [2] did it give?
A: < 10%

Q: How did the inhibition (Histamine H3 receptor [1]) turn out when `c1ccc(N2CCN(CCOc3cccc4ccccc34)CC2)cc1` was run?
A: 39.8%

Q: What about the inhibition [2] of the same compound?
A: 26%

Q: What about the inhibition (D(3) dopamine receptor [3]) of the same compound?
A: 34.5%

Q: What does the source list for `CN1CCN(CCCOc2ccc3ccccc3c2)CC1`?
A: pIC50 (Cholinesterase): 4.58; inhibition (Histamine H3 receptor [1]): 80.5%; pKi (Histamine H3 receptor [4]): 5.55; pKi (D(3) dopamine receptor [5]): 9.15; inhibition [2]: 70%; inhibition (D(3) dopamine receptor [3]): 22.8%

Q: How did the pIC50 (Cholinesterase) turn out when `CN(C)C(=O)Oc1cccc([N+](C)(C)C)c1` [NEOSTIGMINE] was run?
A: 6.80

Q: What about the inhibition [2] of the same compound?
A: > 95%

Q: `O=C(OCCCN1CCN(c2ccccc2)CC1)c1ccc2ccccc2c1` was tested. Which inhibition (Histamine H3 receptor [1]) did it give?
A: 40.8%

Q: And the inhibition [2]?
A: 16.6%

Q: What about the inhibition (D(3) dopamine receptor [3]) of the same compound?
A: 65.3%
